Source: patent publication US20210038607A1, “OXADIAZOLYLTHIOPHENE DERIVATIVES USEFUL AS HISTONE DEACETYLASE INHIBITORS” (Karus Therapeutics Limited, priority 2018, published 2021)

Assays:
[1] = molecular target: T1, Human HDAC5 (Homo sapiens, UniProt Q9UQL6); assay: HDAC5 biochemical assay, class IIa-specific substrate; details: read-out: HDAC Isoform IC50 (nM) 5
T1 construct: full length with C-terminal His tag, MW=51.1 kDa; His (C); host or cells: baculovirus expression system
Description: (§1) Activity against all zinc-dependent HDACs 1 to 11 was assessed by using an acetylated AMC-labeled peptide substrate. The substrate RHKK(Ac)AMC was used for HDAC1, HDAC2, HDAC3, HDAC6 and HDAC10; the substrate used for HDAC8 was RHK(Ac)K(Ac)AMC. Activity against the class IIa HDACs (HDAC4, 5, 7, 9) and HDAC11 was determined using a class IIa-specific substrate, BOC-Lys(trifluoroacetyl)-AMC (“Trifluoroacetyl Lysine”; see Lahm et al, 2007, PNAS, 104, 17335-17340). All assays were based on the AMC-labeled substrate and developer combination.
(§2) The protocol involved a two-step reaction: first, the substrate with the acetylated lysine side chain is incubated with a sample containing HDAC activity, to produce the deacetylated products, which are then digested in the second step by the addition of developer to produce the fluorescent signal proportional to the amount of deacetylated substrates.
Human HDAC5 (GenBank Accession No. NM_005474), full length with C-terminal His tag, MW=51.1 kDa, expressed in baculovirus expression system.
(§3) Assay Buffer: 50 mM Tris-HCl, pH8.0, 137 mM NaCl, 2.7 mM KCl, 1 mM MgC2. Before use, 1 mg/mL BSA and DMSO are added.
(§4) For class IIa HDACs, assay buffer is the same.
HDAC5: 0.05 ng/ul HDAC5 and 50 μM Class IIa HDAC substrate are in the reaction buffer with 1% DMSO final. Incubate for 30 minutes at room temperature.
(§5) Stage 1: Deacetylation of substrate by incubation of HDAC enzymes with compounds
(§6) Stage 2: Development by addition of Developer to digest the deacetylated substrate, and generate the fluorescent colour; Detection: 360/460 Ex/Em

[2] = molecular target: T2, Human HDAC4 (Homo sapiens, UniProt P56524); assay: HDAC4 biochemical assay, class IIa-specific substrate; details: read-out: HDAC Isoform IC50 (nM) 4
T2 construct: amino acids 627-1085 with N-terminal GST tag; GST (N); host or cells: baculovirus expression system
Description: as §1, §2
Human HDAC4 (GenBank Accession No. NM_006037), amino acids 627-1085 with N-terminal GST tag, MW=75.2 kDa, expressed in baculovirus expression system.
as §3, §4
HDAC4: 0.004 ng/ul HDAC4 and 50 μM Class IIa HDAC substrate are in the reaction buffer with 1% DMSO final. Incubate for 30 minutes at room temperature.
as §5, §6

[3] = molecular target: T3, Human HDAC9 (Homo sapiens, UniProt Q9UKV0); assay: HDAC9 biochemical assay, class IIa-specific substrate; details: read-out: HDAC Isoform IC50 (nM) 9
T3 construct: amino acids 604-1066 with C-terminal His tag; His (C); host or cells: baculovirus expression system
Description: as §1, §2
Human HDAC9 (GenBank Accession No. NM_178423), amino acids 604-1066 with C-terminal His tag, MW=50.7 kDa, expressed in baculovirus expression system.
as §3, §4
HDAC9: 0.06 ng/ul HDAC9 and 50 μM Class IIa HDAC substrate are in the reaction buffer with 1% DMSO final. Incubate for 30 minutes at room temperature.
as §5, §6

[4] = molecular target: T4, Recombinant human HDAC6 (Homo sapiens, UniProt Q9UBN7); assay: HDAC6 biochemical assay, AMC-labeled peptide substrate; details: HDAC6; read-out: HDAC Isoform IC50 (nM) 6
T4 construct: full length, MW=159 kDa; GST (N); host or cells: Sf9 insect cells (baculovirus)
T4 sequence (Q9UBN7 1-1215): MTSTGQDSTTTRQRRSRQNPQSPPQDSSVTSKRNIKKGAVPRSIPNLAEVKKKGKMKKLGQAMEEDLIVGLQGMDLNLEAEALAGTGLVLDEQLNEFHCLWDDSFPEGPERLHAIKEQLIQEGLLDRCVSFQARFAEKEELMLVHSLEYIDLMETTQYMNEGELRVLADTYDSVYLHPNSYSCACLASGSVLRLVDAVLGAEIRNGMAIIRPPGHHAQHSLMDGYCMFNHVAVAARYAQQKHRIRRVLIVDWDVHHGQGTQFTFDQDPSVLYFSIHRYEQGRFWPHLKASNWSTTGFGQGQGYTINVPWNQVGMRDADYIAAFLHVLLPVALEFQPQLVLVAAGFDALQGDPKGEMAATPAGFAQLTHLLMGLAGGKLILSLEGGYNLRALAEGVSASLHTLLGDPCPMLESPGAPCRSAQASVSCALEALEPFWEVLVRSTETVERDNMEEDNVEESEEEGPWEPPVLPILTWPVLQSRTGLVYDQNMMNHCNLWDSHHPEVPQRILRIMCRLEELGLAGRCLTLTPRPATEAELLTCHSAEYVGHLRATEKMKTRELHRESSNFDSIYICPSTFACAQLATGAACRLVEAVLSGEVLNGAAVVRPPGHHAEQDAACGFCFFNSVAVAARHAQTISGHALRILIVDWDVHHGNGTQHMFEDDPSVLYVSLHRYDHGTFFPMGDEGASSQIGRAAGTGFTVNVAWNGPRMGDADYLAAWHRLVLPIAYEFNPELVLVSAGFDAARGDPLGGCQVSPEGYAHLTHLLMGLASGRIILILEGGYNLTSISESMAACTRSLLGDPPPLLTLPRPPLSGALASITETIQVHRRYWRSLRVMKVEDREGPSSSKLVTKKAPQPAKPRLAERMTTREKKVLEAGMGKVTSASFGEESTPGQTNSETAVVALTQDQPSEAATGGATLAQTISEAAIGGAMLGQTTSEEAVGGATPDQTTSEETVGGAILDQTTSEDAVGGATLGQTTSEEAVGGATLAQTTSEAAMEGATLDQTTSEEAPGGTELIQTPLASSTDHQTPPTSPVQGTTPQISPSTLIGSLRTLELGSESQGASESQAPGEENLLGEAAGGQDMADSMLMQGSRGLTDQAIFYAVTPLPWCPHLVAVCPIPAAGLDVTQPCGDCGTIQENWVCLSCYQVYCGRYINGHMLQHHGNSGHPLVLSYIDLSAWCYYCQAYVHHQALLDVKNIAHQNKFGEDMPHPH
Description: as §1, §2
Recombinant human HDAC6 (GenBank Accession No. BC069243), full length, MW=159 kDa, was expressed by baculovirus in Sf9 insect cells using an N-terminal GST tag.
as §3
HDAC6: 0.3 ng/ul HDAC6 and 50 μM HDAC substrate are in the reaction buffer with 1% DMSO final. Incubate for 1 hours at 30° C.
as §5, §6

[5] = molecular target: T5, Human HDAC7 (Homo sapiens, UniProt Q8WUI4); assay: HDAC7 biochemical assay, class IIa-specific substrate; details: read-out: HDAC Isoform IC50 (nM) 7
T5 construct: (a.a. 518-end) with N-terminal GST tag; GST (N); host or cells: baculovirus expression system
T5 sequence (Q8WUI4 518-952 limits assumed): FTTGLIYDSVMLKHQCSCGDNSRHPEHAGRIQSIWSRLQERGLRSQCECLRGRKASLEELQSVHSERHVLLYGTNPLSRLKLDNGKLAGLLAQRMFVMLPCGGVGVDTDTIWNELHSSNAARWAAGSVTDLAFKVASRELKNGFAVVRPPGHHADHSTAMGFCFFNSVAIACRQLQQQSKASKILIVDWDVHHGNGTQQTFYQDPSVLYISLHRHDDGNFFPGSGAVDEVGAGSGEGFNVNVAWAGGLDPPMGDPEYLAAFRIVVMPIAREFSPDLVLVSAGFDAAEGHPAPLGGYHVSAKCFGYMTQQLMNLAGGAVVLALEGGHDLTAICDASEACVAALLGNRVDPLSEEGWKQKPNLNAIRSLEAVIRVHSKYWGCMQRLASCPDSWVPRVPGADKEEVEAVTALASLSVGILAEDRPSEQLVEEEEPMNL
Description: as §1, §2
Human HDAC7 (GenBank Accession No. AY302468), (a.a. 518-end) with N-terminal GST tag, MW=78 kDa, expressed in baculovirus expression system.
as §3, §4
HDAC7: 0.001 ng/ul HDAC7 and 50 μM Class IIa HDAC substrate are in the reaction buffer with 1% DMSO final. Incubate for 30 minutes at room temperature.
as §5, §6

[6] = molecular target: T6, Human HDAC1 (Homo sapiens, UniProt Q13547); assay: HDAC1 biochemical assay, AMC-labeled peptide substrate; details: read-out: HDAC Isoform IC50 (nM) 1
T6 construct: full length with C-terminal His-tag and C-terminal FLAG-tag; His (C); FLAG (C); host or cells: baculovirus expression system
Description: as §1, §2
Human HDAC1 (GenBank Accession No. NM_004964), full length with C-terminal His-tag and C-terminal FLAG-tag, MW=56 kDa, expressed in baculovirus expression system.
as §3
HDAC1: 0.3 ng/ul HDAC1 and 50 μM HDAC substrate are in the reaction buffer with 1% DMSO final. Incubate for 1 hour at 30° C.
as §5, §6

T6 sequence (Q13547 whole entry, canonical isoform): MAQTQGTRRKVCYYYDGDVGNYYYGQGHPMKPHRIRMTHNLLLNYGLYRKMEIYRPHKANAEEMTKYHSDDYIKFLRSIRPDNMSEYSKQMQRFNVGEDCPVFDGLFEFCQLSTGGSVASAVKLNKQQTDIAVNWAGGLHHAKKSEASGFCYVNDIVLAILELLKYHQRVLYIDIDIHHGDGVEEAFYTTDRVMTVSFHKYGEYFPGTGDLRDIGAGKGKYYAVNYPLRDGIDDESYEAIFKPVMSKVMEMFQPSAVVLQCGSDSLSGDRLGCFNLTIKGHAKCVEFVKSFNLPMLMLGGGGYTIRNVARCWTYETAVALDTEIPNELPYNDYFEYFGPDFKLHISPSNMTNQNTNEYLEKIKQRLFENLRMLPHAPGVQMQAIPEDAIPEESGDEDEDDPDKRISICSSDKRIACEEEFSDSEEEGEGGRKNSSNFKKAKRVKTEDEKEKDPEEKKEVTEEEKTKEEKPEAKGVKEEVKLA
T3 sequence (Q9UKV0 604-1066 isoform Q9UKV0-5): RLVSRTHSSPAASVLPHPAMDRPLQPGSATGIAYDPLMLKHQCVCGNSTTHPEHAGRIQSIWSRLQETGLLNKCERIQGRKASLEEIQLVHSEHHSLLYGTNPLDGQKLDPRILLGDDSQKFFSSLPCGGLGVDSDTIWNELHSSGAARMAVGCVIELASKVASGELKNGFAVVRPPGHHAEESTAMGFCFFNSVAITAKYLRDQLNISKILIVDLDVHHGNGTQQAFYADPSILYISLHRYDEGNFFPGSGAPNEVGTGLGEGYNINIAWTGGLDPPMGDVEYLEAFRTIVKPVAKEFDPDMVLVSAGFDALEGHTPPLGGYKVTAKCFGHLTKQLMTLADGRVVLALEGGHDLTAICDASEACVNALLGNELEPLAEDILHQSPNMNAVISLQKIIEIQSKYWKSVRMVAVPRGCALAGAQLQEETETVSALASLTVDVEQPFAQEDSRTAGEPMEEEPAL
T1 sequence (Q9UQL6 656-1122 limits assumed): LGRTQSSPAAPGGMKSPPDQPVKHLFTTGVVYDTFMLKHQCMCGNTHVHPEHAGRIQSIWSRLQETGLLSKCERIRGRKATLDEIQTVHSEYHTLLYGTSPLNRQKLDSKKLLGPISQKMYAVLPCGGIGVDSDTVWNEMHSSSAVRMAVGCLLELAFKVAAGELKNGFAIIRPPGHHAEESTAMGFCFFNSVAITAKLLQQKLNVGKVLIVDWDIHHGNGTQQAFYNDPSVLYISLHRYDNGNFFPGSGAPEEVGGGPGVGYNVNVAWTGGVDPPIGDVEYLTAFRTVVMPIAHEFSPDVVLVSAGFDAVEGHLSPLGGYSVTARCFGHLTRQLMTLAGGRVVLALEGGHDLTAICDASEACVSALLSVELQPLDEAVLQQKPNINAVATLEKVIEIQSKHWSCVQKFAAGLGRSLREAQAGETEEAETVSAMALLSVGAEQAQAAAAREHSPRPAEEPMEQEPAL
T2 sequence (P56524 627-1084 limits assumed): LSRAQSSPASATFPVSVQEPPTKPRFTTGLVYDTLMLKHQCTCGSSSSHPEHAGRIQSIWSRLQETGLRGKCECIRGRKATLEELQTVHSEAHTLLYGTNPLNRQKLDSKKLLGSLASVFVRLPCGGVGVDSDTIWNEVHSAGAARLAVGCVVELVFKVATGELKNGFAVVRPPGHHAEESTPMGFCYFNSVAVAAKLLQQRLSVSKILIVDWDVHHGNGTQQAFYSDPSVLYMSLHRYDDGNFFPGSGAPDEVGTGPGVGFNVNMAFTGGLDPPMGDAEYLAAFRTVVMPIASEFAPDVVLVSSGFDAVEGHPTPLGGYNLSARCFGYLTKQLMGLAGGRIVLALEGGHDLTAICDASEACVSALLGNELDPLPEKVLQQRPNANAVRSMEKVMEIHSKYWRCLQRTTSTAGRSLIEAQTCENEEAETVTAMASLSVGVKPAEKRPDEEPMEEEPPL

| SMILES | IC50 [1] [nM] | IC50 [2] [nM] | IC50 [3] [nM] | IC50 [4] [nM] | IC50 [5] [nM] | IC50 [6] [nM] |
| --- | --- | --- | --- | --- | --- | --- |
| Cc1cnc(C)c(N(Cc2ccc(-c3noc(C(F)(F)F)n3)s2)c2cnccn2)n1 [Example BU, 3,6-Dimethyl-N-(pyrazin-2-yl)-N-({5-[5-(trifluoromethyl)-1,2,4-oxadiazol-3-yl]thiophen-2-yl}methyl)pyrazin-2-amine] | ≤ 500 | ≤ 500 | ≤ 1000 | ≤ 10000 | ≤ 1000 | > 10000 |
| Cc1ccnc(N(Cc2ccc(-c3noc(C(F)(F)F)n3)s2)c2cnccn2)n1 [Example AT, 4-Methyl-N-(pyrazin-2-yl)-N-({5-[5-(trifluoromethyl)-1,2,4-oxadiazol-3-yl]thiophen-2-yl}methyl)pyrimidin-2-amine] | ≤ 10000 | ≤ 10000 | ≤ 10000 | ≤ 10000 | ≤ 10000 | > 10000 |
| COc1ncc(N(Cc2ccc(-c3noc(C(F)(F)F)n3)s2)c2cnccn2)cn1 [Example CT, 2-Methoxy-N-(pyrazin-2-yl)-N-({5-[5-(trifluoromethyl)-1,2,4-oxadiazol-3-yl]thiophen-2-yl}methyl)pyrimidin-5-amine] | ≤ 500 | ≤ 500 | ≤ 1000 | ≤ 10000 | ≤ 500 | > 10000 |
| COc1ccnc(N(Cc2ccc(-c3noc(C(F)(F)F)n3)s2)c2cnccn2)n1 [Example AU, 4-Methoxy-N-(pyrazin-2-yl)-N-({5-[5-(trifluoromethyl)-1,2,4-oxadiazol-3-yl]thiophen-2-yl}methyl)pyrimidin-2-amine] | ≤ 10000 | ≤ 10000 | ≤ 10000 | ≤ 10000 | ≤ 10000 | > 10000 |
| FC(F)(F)c1nc(-c2ccc(CN(c3cnccn3)c3ncccc3N3CCOCC3)s2)no1 [Example AN, N-[3-(Morpholin-4-yl)pyridin-2-yl]-N-({5-[5-(trifluoromethyl)-1,2,4-oxadiazol-3-yl]thiophen-2-yl}methyl)pyrazin-2-amine] | ≤ 10000 | ≤ 10000 | ≤ 10000 | ≤ 1000 | ≤ 10000 | > 10000 |
